From patent US5556744A, “Methods and compositions for diagnosing and treating certain HIV infected patients” (The Trustees of the University of Pennsylvania, priority 1994, dated 1996)

System: maternal HIV+ sera (antibodies)
Assay: RIA / ELISA binding of maternal HIV+ sera to gp120 and gp41 peptides (Example 3)
Design: species or system human
Description: Radioimmunoassay (RIA) and enzyme-linked immunosorbent assay (ELISA) were performed by standard methodologies [E. Engvall, Meth. Immunol., 70:419-439 (1980); S. K. Pierce et al, J. Exp. Med., 144:1254-1262 (1976)]. Peptides were dissolved in 0.05M carbonate-bicarbonate buffer (pH 9.6) at a concentration of 10 μg/ml. Fifty μl (500 ng) of the peptides were immobilized in 96 well polyvinylchloride plates (Dynatech Laboratories, Inc.) overnight at 4° C. Plates were washed and non-specific sites were blocked with PBS containing 1% BSA overnight at 4° C.
Dilutions of HIV positive maternal sera were made in blocking buffer at dilutions of 1:50 and 1:500 and incubated in peptide coated plates overnight at 4° C. Plates were washed with PBS and incubated with 75,000 cpm of ^125 I-labelled goat anti-human IgG. The antibody was iodinated by a chloramine T method [W. V. Williams et al, Proc. Natl. Acad. Sci. USA, 85:6488-6492 (1988)]. Plates were washed, dried and counted in a gamma counter to measure specific binding. Normal human serum (i.e., HIV seronegative) was used as a control.
Alternatively, ELISA assays were performed in polystyrene plates (Dynatech Laboratories, Inc) in which 0.05% Tween 20 (Sigma Chemical Co.) was included in the washing, blocking and dilution buffers. The secondary antibody used was goat […] Ig conjugated to horseradish peroxidase (HRP) (Sigma Chemical Co). The substrate used for color development was 3,3',5,5' tetramethyl-benzidine dihydrochloride (TMB) (Sigma Chemical Co). Absorbance of samples was measured in a Dynatech MR5000 (Dynatech Laboratories, Inc.) plate reader and expressed as an optical density at wavelength of 450 nm (OD450).
The following key is used for the designation of specific binding of the maternal sera samples to the peptides: The minus sign, -, is equivalent to the specific OD450 or cpm of sera sample binding to peptide divided by the specific OD450 or cpm of NHS sample binding to peptide, which value is less than 2. The plus sign, +, is equivalent to the specific OD450 or cpm of sera sample binding to peptide divided by the specific OD450 or cpm of NHS sample binding to peptide, which value is between 2 to 3.
Specific binding is defined as the difference between the OD450 or cpm of sera to wells with peptide and the OD450 or cpm of sera to wells without peptide.
Comparisons of number of peptides which bound maternal serum samples were made between the transmission group and the nontransmission group. The data was analyzed using the unpaired student's test. For the determination of differences in the binding of specific peptides between transmission and non-transmission groups, the Spearman's rank-order correlation test was performed.

[1] = Serum No. 1, Non-Transmission Group
[2] = Serum No. 2, Non-Transmission Group
[3] = Serum No. 3, Non-Transmission Group
[4] = Serum No. 4, Transmission Group
[5] = Serum No. 5, Transmission Group
[6] = Serum No. 6, Non-Transmission Group
[7] = Serum No. 7, Non-Transmission Group
[8] = Serum No. 8, Non-Transmission Group
[9] = Serum No. 9, Non-Transmission Group
[10] = Serum No. 10, Transmission Group
[11] = Serum No. 11, Non-Transmission Group
[12] = Serum No. 12, Non-Transmission Group
[13] = Serum No. 13, Transmission Group
[14] = Serum No. 14, Transmission Group
[15] = Serum No. 15, Transmission Group
[16] = Serum No. 16, Non-Transmission Group
[17] = Serum No. 17, Non-Transmission Group
[18] = Serum No. 18, Non-Transmission Group
[19] = Serum No. 19, Transmission Group
[20] = Serum No. 20, Non-Transmission Group

Sequence | Binding of maternal HIV+ serum to peptide (sera/NHS ratio) [1] | Binding of maternal HIV+ serum to peptide (sera/NHS ratio) [2] | Binding of maternal HIV+ serum to peptide (sera/NHS ratio) [3] | Binding of maternal HIV+ serum to peptide (sera/NHS ratio) [4] | Binding of maternal HIV+ serum to peptide (sera/NHS ratio) [5] | Binding of maternal HIV+ serum to peptide (sera/NHS ratio) [6] | Binding of maternal HIV+ serum to peptide (sera/NHS ratio) [7] | Binding of maternal HIV+ serum to peptide (sera/NHS ratio) [8] | Binding of maternal HIV+ serum to peptide (sera/NHS ratio) [9] | Binding of maternal HIV+ serum to peptide (sera/NHS ratio) [10] | Binding of maternal HIV+ serum to peptide (sera/NHS ratio) [11] | Binding of maternal HIV+ serum to peptide (sera/NHS ratio) [12] | Binding of maternal HIV+ serum to peptide (sera/NHS ratio) [13] | Binding of maternal HIV+ serum to peptide (sera/NHS ratio) [14] | Binding of maternal HIV+ serum to peptide (sera/NHS ratio) [15] | Binding of maternal HIV+ serum to peptide (sera/NHS ratio) [16] | Binding of maternal HIV+ serum to peptide (sera/NHS ratio) [17] | Binding of maternal HIV+ serum to peptide (sera/NHS ratio) [18] | Binding of maternal HIV+ serum to peptide (sera/NHS ratio) [19] | Binding of maternal HIV+ serum to peptide (sera/NHS ratio) [20] | also measured
ASWSNKSLEQIWNNM [Peptide 36] | - (specific OD450 or cpm of sera sample binding to peptide divided by the specific OD450 or cpm of NHS sample binding to peptide, which value is less than 2) | - (specific OD450 or cpm of sera sample binding to peptide divided by the specific OD450 or cpm of NHS sample binding to peptide, which value is less than 2) | - (specific OD450 or cpm of sera sample binding to peptide divided by the specific OD450 or cpm of NHS sample binding to peptide, which value is less than 2) | - (specific OD450 or cpm of sera sample binding to peptide divided by the specific OD450 or cpm of NHS sample binding to peptide, which value is less than 2) | - (specific OD450 or cpm of sera sample binding to peptide divided by the specific OD450 or cpm of NHS sample binding to peptide, which value is less than 2) | - (specific OD450 or cpm of sera sample binding to peptide divided by the specific OD450 or cpm of NHS sample binding to peptide, which value is less than 2) | - (specific OD450 or cpm of sera sample binding to peptide divided by the specific OD450 or cpm of NHS sample binding to peptide, which value is less than 2) | - (specific OD450 or cpm of sera sample binding to peptide divided by the specific OD450 or cpm of NHS sample binding to peptide, which value is less than 2) | - (specific OD450 or cpm of sera sample binding to peptide divided by the specific OD450 or cpm of NHS sample binding to peptide, which value is less than 2) | - (specific OD450 or cpm of sera sample binding to peptide divided by the specific OD450 or cpm of NHS sample binding to peptide, which value is less than 2) | - (specific OD450 or cpm of sera sample binding to peptide divided by the specific OD450 or cpm of NHS sample binding to peptide, which value is less than 2) | - (specific OD450 or cpm of sera sample binding to peptide divided by the specific OD450 or cpm of NHS sample binding to peptide, which value is less than 2) | - (specific OD450 or cpm of sera sample binding to peptide divided by the specific OD450 or cpm of NHS sample binding to peptide, which value is less than 2) | - (specific OD450 or cpm of sera sample binding to peptide divided by the specific OD450 or cpm of NHS sample binding to peptide, which value is less than 2) | - (specific OD450 or cpm of sera sample binding to peptide divided by the specific OD450 or cpm of NHS sample binding to peptide, which value is less than 2) | - (specific OD450 or cpm of sera sample binding to peptide divided by the specific OD450 or cpm of NHS sample binding to peptide, which value is less than 2) | - (specific OD450 or cpm of sera sample binding to peptide divided by the specific OD450 or cpm of NHS sample binding to peptide, which value is less than 2) | - (specific OD450 or cpm of sera sample binding to peptide divided by the specific OD450 or cpm of NHS sample binding to peptide, which value is less than 2) | - (specific OD450 or cpm of sera sample binding to peptide divided by the specific OD450 or cpm of NHS sample binding to peptide, which value is less than 2) | - (specific OD450 or cpm of sera sample binding to peptide divided by the specific OD450 or cpm of NHS sample binding to peptide, which value is less than 2) | –
ATEKLWVTVYYGVPVWLEATTTL [Peptide 60] | - (specific OD450 or cpm of sera sample binding to peptide divided by the specific OD450 or cpm of NHS sample binding to peptide, which value is less than 2) | - (specific OD450 or cpm of sera sample binding to peptide divided by the specific OD450 or cpm of NHS sample binding to peptide, which value is less than 2) | - (specific OD450 or cpm of sera sample binding to peptide divided by the specific OD450 or cpm of NHS sample binding to peptide, which value is less than 2) | - (specific OD450 or cpm of sera sample binding to peptide divided by the specific OD450 or cpm of NHS sample binding to peptide, which value is less than 2) | - (specific OD450 or cpm of sera sample binding to peptide divided by the specific OD450 or cpm of NHS sample binding to peptide, which value is less than 2) | - (specific OD450 or cpm of sera sample binding to peptide divided by the specific OD450 or cpm of NHS sample binding to peptide, which value is less than 2) | - (specific OD450 or cpm of sera sample binding to peptide divided by the specific OD450 or cpm of NHS sample binding to peptide, which value is less than 2) | - (specific OD450 or cpm of sera sample binding to peptide divided by the specific OD450 or cpm of NHS sample binding to peptide, which value is less than 2) | - (specific OD450 or cpm of sera sample binding to peptide divided by the specific OD450 or cpm of NHS sample binding to peptide, which value is less than 2) | - (specific OD450 or cpm of sera sample binding to peptide divided by the specific OD450 or cpm of NHS sample binding to peptide, which value is less than 2) | - (specific OD450 or cpm of sera sample binding to peptide divided by the specific OD450 or cpm of NHS sample binding to peptide, which value is less than 2) | - (specific OD450 or cpm of sera sample binding to peptide divided by the specific OD450 or cpm of NHS sample binding to peptide, which value is less than 2) | - (specific OD450 or cpm of sera sample binding to peptide divided by the specific OD450 or cpm of NHS sample binding to peptide, which value is less than 2) | - (specific OD450 or cpm of sera sample binding to peptide divided by the specific OD450 or cpm of NHS sample binding to peptide, which value is less than 2) | - (specific OD450 or cpm of sera sample binding to peptide divided by the specific OD450 or cpm of NHS sample binding to peptide, which value is less than 2) | - (specific OD450 or cpm of sera sample binding to peptide divided by the specific OD450 or cpm of NHS sample binding to peptide, which value is less than 2) | - (specific OD450 or cpm of sera sample binding to peptide divided by the specific OD450 or cpm of NHS sample binding to peptide, which value is less than 2) | - (specific OD450 or cpm of sera sample binding to peptide divided by the specific OD450 or cpm of NHS sample binding to peptide, which value is less than 2) | - (specific OD450 or cpm of sera sample binding to peptide divided by the specific OD450 or cpm of NHS sample binding to peptide, which value is less than 2) | - (specific OD450 or cpm of sera sample binding to peptide divided by the specific OD450 or cpm of NHS sample binding to peptide, which value is less than 2) | Binding of maternal sera to peptide (in words) (Example 3): No binding
